Results taken from BindingDB's records for doi:10.1016/S0960-894X(96)00248-X (1996).

Assay: Inhibitory activity against gastrin receptor

Point of comparison: `CN1C(=O)[C@H](NC(=O)Nc2cccc(CC(=O)NCCC(=O)NCCSCc3csc(N=C(N)N)n3)c2)N=C(c2ccccc2)c2ccccc21` [N-[2-(2-Guanidino-thiazol-4-ylmethylsulfanyl)-ethyl]-3-(2-{3-[3-((R)-1-methyl-2-oxo-5-phenyl-2,3-dihydro-1H-benzo[e][1,4]diazepin-3-yl)-ureido]-phenyl}-acetylamino)-propionamide], IC50 80 nM. Against it:
- CN1C(=O)[C@H](NC(=O)Nc2cccc(CC(=O)NCCSCc3csc(N=C(N)N)n3)c2)N=C(c2ccccc2)c2ccccc21 [N-[2-(2-Guanidino-thiazol-4-ylmethylsulfanyl)-ethyl]-2-{3-[3-((R)-1-methyl-2-oxo-5-phenyl-2,3-dihydro-1H-benzo[e][1,4]diazepin-3-yl)-ureido]-phenyl}-acetamide] — 2.1-fold higher, 168 nM
- Cc1cccc(NC(=O)NC2N=C(c3cccc(OCC(=O)NCCC(=O)NCCSCc4csc(N=C(N)N)n4)c3)c3ccccc3N(C)C2=O)c1 (centres undefined) [N-[2-(2-Guanidino-thiazol-4-ylmethylsulfanyl)-ethyl]-3-(2-{3-[1-methyl-2-oxo-3-(3-m-tolyl-ureido)-2,3-dihydro-1H-benzo[e][1,4]diazepin-5-yl]-phenoxy}-acetylamino)-propionamide] — 3.2-fold lower, 25 nM
- Cc1cccc(NC(=O)NC2N=C(c3ccccc3)c3ccccc3N(CC(=O)NCCC(=O)NCCSCc3csc(N=C(N)N)n3)C2=O)c1 (centres undefined) [N-[2-(2-Guanidino-thiazol-4-ylmethylsulfanyl)-ethyl]-3-{2-[2-oxo-5-phenyl-3-(3-m-tolyl-ureido)-2,3-dihydro-benzo[e][1,4]diazepin-1-yl]-acetylamino}-propionamide] — within 1.5-fold, 75 nM
- Cc1cccc(NC(=O)NC2N=C(c3cccc(OCC(=O)NCCCC(=O)NCCSCc4csc(N=C(N)N)n4)c3)c3ccccc3N(C)C2=O)c1 (centres undefined) [N-[2-(2-Guanidino-thiazol-4-ylmethylsulfanyl)-ethyl]-4-(2-{3-[1-methyl-2-oxo-3-(3-m-tolyl-ureido)-2,3-dihydro-1H-benzo[e][1,4]diazepin-5-yl]-phenoxy}-acetylamino)-butyramide] — 5.7-fold lower, 14 nM
- CN1C(=O)[C@H](NC(=O)Nc2cccc(CC(=O)NCCCC(=O)NCCSCc3csc(N=C(N)N)n3)c2)N=C(c2ccccc2)c2ccccc21 [N-[2-(2-Guanidino-thiazol-4-ylmethylsulfanyl)-ethyl]-4-(2-{3-[3-((R)-1-methyl-2-oxo-5-phenyl-2,3-dihydro-1H-benzo[e][1,4]diazepin-3-yl)-ureido]-phenyl}-acetylamino)-butyramide] — 3-fold higher, 240 nM
- Cc1cccc(NC(=O)NC2N=C(c3ccccc3)c3ccccc3N(CC(=O)NCCCC(=O)NCCSCc3csc(N=C(N)N)n3)C2=O)c1 (centres undefined) [N-[2-(2-Guanidino-thiazol-4-ylmethylsulfanyl)-ethyl]-4-{2-[2-oxo-5-phenyl-3-(3-m-tolyl-ureido)-2,3-dihydro-benzo[e][1,4]diazepin-1-yl]-acetylamino}-butyramide] — 2.4-fold higher, 190 nM
- Cc1cccc(NC(=O)NC2N=C(c3ccccc3)c3ccccc3N(CC(=O)NCC(=O)NCCSCc3csc(N=C(N)N)n3)C2=O)c1 (centres undefined) [N-{[2-(2-Guanidino-thiazol-4-ylmethylsulfanyl)-ethylcarbamoyl]-methyl}-2-[2-oxo-5-phenyl-3-(3-m-tolyl-ureido)-2,3-dihydro-benzo[e][1,4]diazepin-1-yl]-acetamide] — 4.6-fold higher, 370 nM
- Cc1cccc(NC(=O)NC2N=C(c3cccc(OCC(=O)NCC(=O)NCCSCc4csc(N=C(N)N)n4)c3)c3ccccc3N(C)C2=O)c1 (centres undefined) [N-{[2-(2-Guanidino-thiazol-4-ylmethylsulfanyl)-ethylcarbamoyl]-methyl}-2-{3-[1-methyl-2-oxo-3-(3-m-tolyl-ureido)-2,3-dihydro-1H-benzo[e][1,4]diazepin-5-yl]-phenoxy}-acetamide] — 6.7-fold lower, 12 nM
